Source: patent US20240325274A1, “SUPRAMOLECULAR AMINO ACID OR SALT THEREOF, AND PREPARATION METHOD THEREFOR AND APPLICATION THEREOF” (SUZHOU OULIT BIOPHARM CO., LTD., priority 2021, published 2024)

Key:
[1] = Detergency evaluation: color cosmetics on arms of 5 subjects; design: key: 5 denotes the best; 3 denotes moderate; 1 denotes the worst; details: 1 g of 4% aqueous solution with 0.54% sodium hydroxide; graded by 5 subjects
Text: (§1) Three sets of color cosmetics (lipstick+eyeliner) were applied to the arms of 5 subjects with similar areas and thicknesses. The cosmetics were washed with the aqueous solutions in Table 6 (1 g of each) and then rinsed with tap water (the detergency was graded by the 5 subjects comprehensively).

[2] = pH, appearance and smell of neutralized aqueous solutions; type: physicochemical; details: 4% in water with 0.54% sodium hydroxide (Table 6)
Experimental: as §1
The preparation procedures are as follows: Two 500-g beakers were weighed on an electronic balance, and the weights of the beakers were recorded; a proper amount of deionized water was weighed and added to the beakers according to the formula, and the beakers were heated to 75-80° C. in a water bath. The temperature of the water in the beaker was measured by a thermometer. […] At the start of the stirring, a proper amount of arginine was added to beaker (1) and a proper amount of 10% aqueous sodium hydroxide solution was added to beaker (2). The mixtures were stirred for 1 min. The temperature of the beakers (1) and (2) was reduced to 25° C. by running tap water. The evaporated water in the two beakers in the preparation process was compensated by cooled deionized water to 100% on an electronic balance. The pH of the products in the beaker (1) and (2) was measured, the appearance was observed, and the smell was confirmed.

C. albicans (ATCC 10231) = details: 10 g in 100 mL neutralized with NaOH to pH 6-7
Experimental: (§2) A 10% aqueous sodium hydroxide solution was added to neutralize the mixture to pH 6-7. The volume of the aqueous solution was brought to 100 mL. Fruits pre-inoculated with common microorganisms such as Staphylococcus aureus, Escherichia coli, Pseudomonas aeruginosa, Candida albicans, and the like were soaked in 5 mL of the stock solution (the solution neutralized by sodium hydroxide) for a certain period of time, and washed with clean water. The microorganism residues on the fruits were determined.

E. coli (8099) = system: E. coli (8099)
Experimental: as §2

S. aureus (ATCC 6538) = details: 10 g in 100 mL neutralized with NaOH to pH 6-7
Experimental: as §2

[3] = Experimental: Two 100-g aliquots of bok choy pre-sprayed with pesticides methamidophos and acephate were taken. One was directly soaked in 1 L of clean water and detected for the pesticide residues, denoted as “before washing”. […] The procedures are as follows:
A 10% aqueous sodium hydroxide solution was added to neutralize the mixture to pH 6-7. The volume of the aqueous solution was brought to 100 mL. The second 100-g aliquot of bok choy pre-sprayed with pesticides methamidophos and acephate was shredded, soaked in 5 mL of the stock solution for 2 min, washed with 500 mL of clean water, and detected for the pesticide residues.

[4] = cloths soaked in 5 mL stock solution for 2 min, washed with water, aired
Experimental: A 10% aqueous sodium hydroxide solution was added to neutralize the mixture to pH 6-7. The volume of the aqueous solution was brought to 100 mL. Cotton cloths of 10 square centimeters with peculiar smell (smell, engine oil smell, odor, etc.) were soaked in 5 mL of stock solution for 2 min, taken out, washed with water, and dried by airing.

[5] = Qualitative household application test; details: 12% aqueous solution of sodium salt
Text: For the surface of the electric rice cookers, especially the sticky bottoms, the greasy stains on the surface were wiped several times by using rags or paper towels soaked in the solutions and then wiped by using a clean cloth.

Compound	Detergency [1]	Appearance [2]	pH value [2]	Inhibition of C. albicans (ATCC 10231), % (after 5 minutes) (C. albicans (ATCC 10231))	Inhibition of E. coli (8099), % (after 2 minutes) (E. coli (8099); after 2 minutes, 10 g in 100 mL neutralized with NaOH to pH 6-7, fruits soaked in 5 mL stock solution)	Inhibition of E. coli (8099), % (after 5 minutes) (E. coli (8099); after 5 minutes, 10 g in 100 mL neutralized with NaOH to pH 6-7)	Inhibition of S. aureus (ATCC 6538), % (after 2 minutes) (S. aureus (ATCC 6538); after 2 minutes)	Inhibition of S. aureus (ATCC 6538), % (after 5 minutes) (S. aureus (ATCC 6538); after 5 minutes)	Acephate, Percentage removal, % ([3]; 2 min of treatment)	Methamidophos, Percentage removal, % ([3]; 2 min of treatment)	Methamidophos residue, After cleaning ([3]; bok choy soaked in 5 mL stock solution for 2 min, washed with 500 mL clean water, before washing 16.42 mg/kg)	Acephate residue, After cleaning ([3]; bok choy soaked in 5 mL stock solution for 2 min, washed with 500 mL clean water, before washing 37.57 mg/kg)	Deodorization effect on cotton cloths [4]	Detergency on surfaces of cooking benches and kitchen hoods [5]
CCCCCCCCCCCC(=O)N[C@@H](C)C(=O)O [Comparative Example 1, N-lauroyl-L-alanine]	3	Transparent	8.07											
CCCCCCCCCCCC(=O)N[C@@H](C)C(=O)O [Comparative Example 2, N-lauroyl-L-alanine]	1	Transparent	6.56											
N-lauroyl-L-alanine supramolecule [Example 1]	5			100%	98.5%	100%	100%	100%	86.37%	76.19%	3.91 mg/kg	5.12 mg/kg	the smells on the cotton cloths were completely eliminated	excellent detergency
